Counter-ions that a name gives are not always drawn. Like-named read-outs stand apart in the source and are kept apart here.
What was measured:
E. coli (ATCC 25922) = assay: MIC determination, sensitization fold and FIC index on E. coli; assay type: cell-based; conditions: for MIC: Escherichia coli; for sensitization activity: compound at up to 10 μM; for Sensitization: compound up to 25 μM
Description: (§1) Bacteria culture and MICs determination: Gram-negative bacteria were cultured in Mueller Hinton II cation-adjusted broth. Gram-positive bacteria were cultured in LB broth. Mycobacterium smegmatis was cultured in Middlebrook 7H9 Broth. MICs of antibiotics itself were determined by performing two-fold serial dilutions of antibiotics. MICs of antibiotics in the presence of bacterial sensitizers were determined by performing two-fold serial dilutions of antibiotics with or without a constant concentration of bacterial sensitizers. The MICs tests were performed on 96-well plates with a final volume of 200 μl Mueller Hinton II cation-adjusted broth in each well. Each well was inoculated with 5×10^5 CFU/ml bacteria and was incubated for 24 h at 37° C. with continuous shaking of 200 rpm. The bacterial density was then determined by OD600. Bacterial growth %=OD600 of antibiotic treatment group/OD600 of antibiotic non-treatment group. MICs was determined as the concentrations that inhibit more than 90% of bacteria growth.
(§2) Sensitization fold determination and FIC index calculations: Sensitization fold=MIC of antibiotic only/MIC of antibiotic with bacterial sensitizer. […] Since the MICs were determined by performing two-fold serial dilutions of antibiotic, so the sensitization fold can is the times of 2.
FIC index between compound a and b was calculated according to the formula below: […]
FIC≤0.5: Synergy; FIC between 0.5 and 1: Additive; FIC between 1 and […]: no interaction; FIC >4: antagonism.
(§3) Bacteria strains (as indicated in Table 5B) were cultured with rifampicin at various concentrations in the presence or absence of 10 μM of the indicated compound for 20 h at 37° C. The MIC, sensitization, cytotoxicity, and MIC on mycobacteria were tested according to methods described herein. […] The sensitization activities of compounds on MRSA were tested using rifampicin. The sensitization activities of compounds on E. coli were tested using rifampicin.

[1] = tested on: NDM-1 expressing E. coli strain; assay: microbe, parasite or virus in culture; assay type: cell-based; conditions: Escherichia coli; antibiotic alone (Table 14); read-out: MIC on NDM-1 over-expression E. coli
[2] = tested on: A. baumannii (ATCC 17978); assay: MIC, sensitization fold and FIC index on A. baumannii; assay type: cell-based; conditions: A. baumannii towards the antibiotic
[3] = Cytotoxicity in H9c2 cells (CCK-8); assay type: cell-based; conditions: rat, H9c2 cells; H9c2 cell line
Description: The cytotoxicity in H9c2 (ATCC®CRL-1446™) cells was also determined. The H9c2 cells were maintained in DMEM (Dulbecco's Modified Eagle's Medium) supplemented with 10% fetal bovine serum (MidSci; S01520HI) and 1% penicillin-streptomycin (Sigma-Aldrich; P4333) at 37° C. with 5% CO2. The H9c2 cells were seeded in 96-well plate one day before the experiment. Different concentrations of di-amidine compounds were added into the H9c2 cells. The cells were then incubated with the compounds for 24 hours at 37° C. with 5% CO2. The cell viability was tested by the CCK-8. Specifically, after 24 hour incubation, 10 μL CCK-8 was added to each well. After 3 hours incubation at 37° C., the absorbance at 450 nm was recorded by a plate reader.

B. subtilis = assay: MIC determination and sensitization fold on B. subtilis; assay type: cell-based; conditions: B. subtilis; for Sensitization fold / Sensitization: erythromycin; for MIC: Bacillus subtilis, 24 h, compound alone, read-out: MIC; for Sensitization: compound up to 12 μM
MRSA (ATCC 33592) = assay: MIC determination and sensitization fold on MRSA; assay type: cell-based, methicillin-resistant Staphylococcus aureus; conditions: for MIC: Staphylococcus aureus, 24 h; for Sensitization fold: rifampicin
Description: Bacteria strains: E. coli (ATCC 25922), A. baumannii (ATCC 17978), K. pneumoniae (43816), S. maltophilia (ATCC 31559), S. typhimurium (ATCC 14028), C. werkmanii (ATCC 51114), S. aureus (ATCC 12600) and methicillin-resistant Staphylococcus aureus (MRSA, ATCC 33592) strains were purchased from ATCC. NR698 was provided.
as §1, §2, §3

[4] = Cytotoxicity on mammalian cells (CCK-8), HEK293; assay type: cell-based; conditions: human, HEK293 cells; HEK293 cell line; 24 h
Description: (§4) Cytotoxicity test of bacterial sensitizers on mammalian cells. Cell viability was assessed by using Cell Counting Kit-8 (CCK-8, Dojindo, Japan). HEK293 or NIH3T3 cells were seeded in a 96-well plate one day before the experiment to reach 80% confluency. Cells were then incubated with various concentration of bacterial sensitizers at 37° C. with 5% CO2 for 24 h, then 10 μL of CCK-8 solution was added to each well, and the plate was incubated for an additional at 37° C. 2 h with 5% CO2. The optical density at 450 nm was recorded by plate reader; and the results were calculated as a percentage of viability compared with the untreated control.

[5] = Cytotoxicity on mammalian cells (CCK-8), NIH3T3; assay type: cell-based; conditions: mouse, NIH3T3 cells, 3T3 cell line
Description: as §4

[6] = ATCC25922, 24 h, E. coli, compound alone, read-out: MIC
[7] = MRSA, compound alone, read-out: MIC

Structure (SMILES): CC(C)(O/N=C(\C(=O)N[C@@H]1C(=O)N2C(C(=O)[O-])=C(C[n+]3ccccc3)CS[C@H]12)c1csc(N)n1)C(=O)O [Ceftazidime, reference compound]
- MIC (E. coli (ATCC 25922); ATCC25922, antibiotic alone (Table 14), read-out: MIC on wild-type E.coli): < 0.2 µg/mL
- MIC [1]: > 6.25 µg/mL

Structure (SMILES): O=C(O)c1cn(C2CC2)c2cc(N3CCNCC3)c(F)cc2c1=O [Ciprofloxacin, reference compound]
- Sensitization fold (E. coli (ATCC 25922); E. coli towards the antibiotic, MD-124 5 μg/ml): 4 fold
- MIC of AB with MD-124 (E. coli (ATCC 25922); E. coli, MD-124 concentration 5 μg/ml): 0.0125 µg/mL
- MIC (E. coli (ATCC 25922); ATCC25922, 24 h, E. coli (wild type), antibiotic alone, read-out: MIC of AB only): 0.05 µg/mL
- Sensitization fold with 5 μg/ml MD-124 [2]: 4 fold

Structure (SMILES): NC[C@H]1O[C@H](O[C@H]2[C@H](O)[C@@H](O[C@H]3O[C@H](CO)[C@@H](O)[C@H](N)[C@H]3O)[C@H](N)C[C@@H]2N)[C@H](O)[C@@H](O)[C@@H]1O [Kanamycin]
- Sensitization fold with 5 μg/ml MD-124 [2]: 2 fold

Structure (SMILES): Cc1cc(COc2ccc(CN)cc2)cc(COc2ccc(CN)cc2)c1 [MD-106, ((((S-methyl-1,3-phenylene)bis(methylene))bis(oxy))bis(4,1-phenylene))dimethanamine dihydrochloride]
- CC50 at 24 h [3]: 12.5 µM
- Sensitization fold (E. coli (ATCC 25922); 10 μM compound, rifampicin as the antibiotic (Table 6)): 1 fold
- Sensitization fold (E. coli (ATCC 25922); E. coli, rifampicin, compound at 25 μM): 4-fold at 25 μM
- MIC (E. coli (ATCC 25922); [6]): 100 µM
- sensitization activity (E. coli (ATCC 25922); rifampicin): no sensitization activity
- Sensitization fold (B. subtilis; compound at 4 μM): 4-fold at 4 μM
- Sensitization fold (B. subtilis; compound at 12 μM): 16-fold at 12 μM
- MIC (B. subtilis): > 50 µM
- MIC (MRSA (ATCC 33592); [7]): > 50 µM
- CC50 at 24 h [4]: 25 µM
- CC50 at 24 h [5]: 25 µM

Structure (SMILES): CC(C)NC(=N)c1ccc(OCc2cccc(COc3ccc(C(=N)NC(C)C)cc3)c2F)cc1 [MD-110, 1,3-Bis{(4-isopropylamidino)-phenoxymethyl}-2-fluorobenzene dihydrochloride]
- Sensitization (E. coli (ATCC 25922); E. coli, rifampicin): No effect up to 25 μM.
- MIC (E. coli (ATCC 25922); [6]): 25 µM
- Sensitization fold (B. subtilis; compound at 6 μM): No effect at 6 μM.
- MIC (B. subtilis): 25 µM
- Sensitization fold (MRSA (ATCC 33592); MRSA, compound at 4 μM): 16-fold at 4 μM.
- CC50 at 24 h [4]: > 100 µM
- CC50 at 24 h [5]: > 100 µM

Structure (SMILES): CC(C)NC(=N)c1ccc(OCc2cccc(COc3ccc(C(=N)NC(C)C)cc3F)c2F)c(F)c1 [MD-111, 1,3-Bis {(4-isopropylamidino-2-fluoro)-phenoxymethyl}-2-fluorobenzene dihydrochloride]
- Sensitization (E. coli (ATCC 25922); E. coli, rifampicin): No effect up to 25 μM.
- MIC (E. coli (ATCC 25922); [6]): 50 µM
- Sensitization (B. subtilis): No effect up to 12 μM.
- MIC (B. subtilis): 25 µM
- Sensitization fold (MRSA (ATCC 33592); MRSA, compound at 6 μM): 8 -fold at 6 μM.
- Sensitization fold (MRSA (ATCC 33592); MRSA, compound at 12 μM): 16-fold at 12 μM,
- MIC (MRSA (ATCC 33592); [7]): 50 µM
- CC50 at 24 h [4]: > 100 µM
- CC50 at 24 h [5]: > 100 µM

Structure (SMILES): Cc1cc(COc2ccc(C3=NCCCN3)cc2)cc(COc2ccc(C3=NCCCN3)cc2)c1 [MD-113, 2,2′-((((5-methyl-1,3-phenylene)bis(methylene))bis(oxy))bis(4,1-phenylene))bis(1,4,5,6-tetrahydropyrimidine) dihydrochloride]
- Sensitization (E. coli (ATCC 25922); E. coli, rifampicin): No effect up to 25 μM.
- MIC (E. coli (ATCC 25922); ATCC25922, 24 h): > 100 µM
- sensitization activity (E. coli (ATCC 25922); rifampicin): no sensitization activity
- Sensitization (B. subtilis): No effect up to 12 μM.
- MIC (B. subtilis): 50 µM
- Sensitization fold (MRSA (ATCC 33592); MRSA, compound at 12 μM): 4-fold at 12 μM.
- Sensitization fold (MRSA (ATCC 33592); MRSA, compound at 25 μM): 8-fold at 25 μM,
- MIC (MRSA (ATCC 33592)): > 50 µM
- CC50 at 24 h [4]: > 100 µM
- CC50 at 24 h [5]: > 100 µM
